In PubChem BioAssay (NCI):
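48-hour exposure; five concentrations; linearly interpolated endpoints. TGI is the concentration that stops growth completely.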 Where a SMILES comes first, the peptide text is derived from it. [ ]: non-standard residue; d: D form. The star is where a group is joined. ξ: configuration not given here. NMeF = CN[C@@H](Cc1ccccc1)C(=O)O; ξNMeV = CNC(C(=O)O)C(C)C; Boc = CC(C)(C)OC(=O)*; OBn = c1ccc(CO*)cc1

Experiments:
Assay in all cases: NCI tumour cell line growth inhibition, 48 h
A549 NSCLC = test system: A549 NSCLC
BT-549 breast = test system: BT-549 breast
HCC-2998 colon = test system: HCC-2998 colon
HOP-62 NSCLC = test system: HOP-62 NSCLC
HOP-92 NSCLC = test system: HOP-92 NSCLC
MDA-MB-231 breast = test system: MDA-MB-231 breast
MDA-MB-435 = test system: MDA-MB-435
NCI-H226 lung = test system: NCI-H226 lung
NCI-H23 lung = test system: NCI-H23 lung
OVCAR-3 ovarian = test system: OVCAR-3 ovarian
RPMI-8226 leukemia = test system: RPMI-8226 leukemia
SN12C renal = test system: SN12C renal
SNB-19 CNS = test system: SNB-19 CNS
U251 CNS = test system: U251 CNS
UO-31 renal = test system: UO-31 renal
HL-60(TB) leukemia = test system: HL-60(TB) leukemia
MALME-3M melanoma = test system: MALME-3M melanoma

Structure (SMILES)	TGI (A549 NSCLC) [µM]	TGI (BT-549 breast) [µM]	TGI (HCC-2998 colon) [µM]	TGI (HOP-62 NSCLC) [µM]	TGI (HOP-92 NSCLC) [µM]	TGI (MDA-MB-231 breast) [µM]	TGI (MDA-MB-435) [µM]	TGI (NCI-H226 lung) [µM]	TGI (NCI-H23 lung) [µM]	TGI (OVCAR-3 ovarian) [µM]	TGI (RPMI-8226 leukemia) [µM]	TGI (SN12C renal) [µM]	TGI (SNB-19 CNS) [µM]	TGI (U251 CNS) [µM]	TGI (UO-31 renal) [µM]	TGI (HL-60(TB) leukemia) [µM]	TGI (MALME-3M melanoma) [µM]
COP1(=O)NCc2ncccc2O1 (stereo not drawn)	> 100	> 100	> 100	> 100	> 100	> 100	> 100	> 100	> 100	> 100	> 100	> 100	> 100	> 100	> 100	–	–
N=C(N)n1[nH]c2c(c1=O)CCCC2	> 100	–	> 100	> 100	–	> 100	> 100	> 100	> 100	> 100	> 100	> 100	> 100	> 100	> 100	> 100	> 100
NCC(NC(=O)OCc1ccccc1)C(=O)O (stereo not drawn)	> 50	–	> 50	> 50	> 50	–	–	> 50	> 50	> 50	> 50	> 50	> 50	> 50	> 50	> 50	> 50
C/C(=N/NC(=O)C(N)=O)C(CC(C(=O)Nc1ccccc1C)/C(C)=N\NC(=O)C(N)=O)C(=O)Nc1ccccc1C (stereo not drawn)	> 100	–	> 100	> 100	> 100	–	–	> 100	> 100	> 100	> 100	> 100	> 100	> 100	> 100	> 100	> 100
COC(=NCCC1=CCCCC1)OC	> 100	> 100	39.9	> 100	> 100	> 100	> 100	–	> 100	> 100	85.8	–	> 100	> 100	> 100	–	> 100
COC(=O)/C=C1/N=C(N(C)/N=C/c2ccccc2)NC1=O	> 100	> 100	> 100	> 100	–	> 100	–	–	> 100	> 100	–	> 100	> 100	–	> 100	> 100	> 100
CC(C)C(C(=O)N1CCC[C@@H]1C(=O)OCc1ccccc1)N(C)C(=O)C(C(C)C)N(C)C(=O)[C@H](Cc1ccccc1)N(C)C(=O)[C@H](NC(=O)OC(C)(C)C)C(C)C (stereo partly drawn) (Boc-[dV][NMeF][ξNMeV][ξNMeV][dP]-OBn)	> 100	–	> 100	> 100	> 100	–	–	> 100	> 100	> 100	> 100	> 100	> 100	> 100	> 100	> 100	> 100
CC(C)N=C(NC#N)NS(=O)(=O)c1cnccc1Nc1ccc(Cl)cc1	> 100	> 100	> 100	> 100	–	> 100	> 100	> 100	> 100	> 100	> 100	> 100	> 100	> 100	> 100	–	> 100
CC(C)[Si](OC1=C(C(=O)N(C)c2ccccc2Cl)CCC1)(C(C)C)C(C)C	32.1	29.8	–	32.3	32.7	30.9	42.7	40.3	29.8	31.2	49.6	31.6	30	31.1	29.4	–	34.6
COc1ccc2c(c1)nc1n2C(c2c(F)cccc2Cl)SC1 (stereo not drawn)	> 50.6	> 31.3	> 39.8	> 44.6	> 100	27.9	–	43.4	> 35	> 26.1	> 47.8	> 100	> 58.7	> 35.4	> 100	–	5.43
O=C(/C=C(\Nc1ccccc1O)c1ccccc1)C(=O)NC12CC3CC(CC(C3)C1)C2	–	–	> 10	> 10	–	> 10	> 10	> 10	> 10	> 10	> 10	> 10	–	> 10	> 10	> 10	> 10
COc1ccc(C2=NN(c3ccccc3)C(c3cc4cc(Br)ccc4nc3Cl)C2)cc1 (stereo not drawn)	> 25	> 25	–	> 25	> 25	–	> 25	> 25	> 25	> 25	> 25	> 25	> 25	–	> 25	> 25	> 25
O=c1cc(CC(O)(C(F)(F)Cl)C(F)(F)Cl)[nH]n1-c1ccccc1	> 100	–	> 100	> 100	> 100	> 100	> 100	> 100	> 100	–	> 100	> 100	> 100	> 100	> 100	> 100	> 100
COC(=O)N/N=C/c1oc(-c2ccccc2)c(-c2ccccc2)c1[N+](=O)[O-]	> 100	–	> 100	> 100	> 100	–	–	> 100	> 100	> 100	> 100	> 100	> 100	> 100	> 100	> 100	> 100
CC(C)C(=O)/C=C/c1ccc(Cl)cc1	59.7	–	31.9	–	31.6	–	–	–	44.7	28	67.2	21.7	28.1	25.5	24.5	28.8	–
COC(=O)C(Cc1ccccc1I)C1=CCC2(CC1)OCCO2 (stereo not drawn)	82.8	–	> 100	> 100	97.2	> 100	44.8	> 100	95.1	81.3	> 100	–	96.8	> 100	66.3	41.5	56.5

Structure (SMILES)	TGI (A549 NSCLC) [µM]	TGI (BT-549 breast) [µM]	TGI (HCC-2998 colon) [µM]	TGI (HOP-62 NSCLC) [µM]	TGI (HOP-92 NSCLC) [µM]	TGI (MDA-MB-231 breast) [µM]	TGI (MDA-MB-435) [µM]	TGI (NCI-H226 lung) [µM]	TGI (NCI-H23 lung) [µM]	TGI (OVCAR-3 ovarian) [µM]	TGI (RPMI-8226 leukemia) [µM]	TGI (SN12C renal) [µM]	TGI (SNB-19 CNS) [µM]	TGI (U251 CNS) [µM]	TGI (UO-31 renal) [µM]	TGI (HL-60(TB) leukemia) [µM]	TGI (MALME-3M melanoma) [µM]
CN(C)CC(CO)(CN(C)C)CN(C)C	> 100	> 100	–	> 100	> 100	–	–	> 100	> 100	> 100	> 100	> 100	> 100	> 100	> 100	> 100	> 100
Cc1ccc(-n2c(Cn3nnc(-c4cccnc4)n3)nn(C3OC(COC(=O)c4ccccc4)C(OC(=O)c4ccccc4)C3OC(=O)c3ccccc3)c2=S)cc1 (stereo not drawn)	> 100	> 100	> 100	> 100	–	> 100	> 100	> 100	> 100	> 100	> 100	> 100	> 100	> 100	> 100	–	> 100
CSc1ccc2c(cc1=O)C(NC(=O)c1ccc(OC(C)=O)cc1)CCc1cc(O)c(O)c(O)c1-2 (stereo not drawn)	> 100	–	> 100	> 100	–	–	–	50.8	67.7	44.5	–	31.6	> 100	39	> 100	21.9	> 100
CCOc1ccc(N=Nc2ccc3oc(=O)c(C(=O)Nc4ccc(OC)cc4)cc3c2)cc1	> 100	–	36.8	63.6	–	–	–	–	56.9	67	> 100	> 100	46.6	61.1	78	20.4	> 100
COC(=O)C1CCC(Nc2cccc(C(F)(F)F)c2)=N1 (stereo not drawn)	> 100	–	> 100	> 100	> 100	–	–	> 100	> 100	> 100	> 100	> 100	> 100	> 100	> 100	> 100	> 100
CC(=O)OC1CC2(c3ccccc3)C(=O)c3ccccc3N2O1 (stereo not drawn)	> 100	–	> 100	> 100	> 100	–	–	> 100	> 100	–	> 100	> 100	> 100	> 100	> 100	> 100	> 100
COc1ccc(C2ON(c3ccccn3)CC=C2C)cc1 (stereo not drawn)	> 100	–	> 100	> 100	–	–	–	> 100	> 100	> 100	> 100	> 100	> 100	> 100	> 100	> 100	> 100
CC(C)OP(=O)(OC(C)C)/C(=N/N)NNc1ccc([N+](=O)[O-])cc1	> 100	–	> 100	> 100	> 100	–	–	> 100	> 100	> 100	> 100	> 100	> 100	> 100	> 100	> 100	> 100
COc1cc(C(C)c2cc3c(cc2OCCCCOc2cc4c(cc2C(C)c2cc(OC)c(OC)c(OC)c2)OCO4)OCO3)cc(OC)c1OC (stereo not drawn)	> 100	–	> 100	> 100	–	–	–	80.6	> 100	58.2	> 100	> 100	> 100	> 100	> 100	> 100	> 100
O=c1c2ccccc2nc(-c2ccccc2)n1NC(=S)Nc1ccc(Cl)cc1[N+](=O)[O-]	> 100	–	–	> 100	> 100	–	–	82.4	> 100	–	> 100	> 100	–	> 100	> 100	> 100	> 100
O=P1(Oc2ccc(Cl)cc2)OCCS1 (stereo not drawn)	> 100	> 100	> 100	> 100	> 100	> 100	–	> 100	> 100	–	> 100	> 100	> 100	> 100	> 100	> 100	> 100
COc1ccc(N[C@H](CS(=O)c2ccc(C)cc2)C(F)(F)C(F)(F)F)cc1 (stereo partly drawn)	> 100	> 100	> 100	> 100	64.5	–	> 100	> 100	> 100	> 100	> 100	> 100	> 100	> 100	> 100	> 100	> 100
CC1(C)C2CCC3(OCCO3)C1C1OC12 (stereo not drawn)	> 100	–	–	–	> 100	–	–	> 100	> 100	> 100	> 100	–	> 100	> 100	> 100	> 100	> 100
NC(=S)N1N=C2c3ccccc3CC[C@H]2[C@@H]1c1cccs1	> 100	–	> 100	> 100	> 100	–	–	> 100	87.9	> 100	> 100	> 100	> 100	> 100	> 100	42.8	80.2
CC12CC[C@H](O)C(C)(C)[C@H]1CC[C@](C)(O)C2COc1ccc2ccc(=O)oc2c1 (stereo partly drawn)	> 100	–	> 100	> 100	> 100	–	–	> 100	> 100	> 100	> 100	> 100	> 100	> 100	> 100	> 100	> 100
O=C1c2nn(-c3ccccc3)nc2C(c2ccccc2)N1c1ccccc1 (stereo not drawn)	> 100	–	> 100	96.6	–	–	–	> 100	> 100	> 100	> 100	> 100	> 100	> 100	> 100	–	> 100
